Experimental data as given in patent US8877214B2, “Pharmaceutical composition for modified release” (Astellas Pharma Inc., priority 2010, dated 2014).

Columns and labels:
[1] = Pharmacokinetics of compound A after conventional formulation (elimination half-life; absorption by deconvolution); conditions: human, in vivo; read-out: elimination half-life (T1/2)
From the text: Taking into consideration the results of the clinical trial described above, the present inventors conducted intensive studies to design the formulation by paying attention to the control of a release rate of the drug from a formulation to the extent that the release is not affected by food intake or the like, rather than the addition of release control.
On the basis of blood concentration profiles (in a fasted state/after the intake of food) after administration of a conventional formulation (immediate release formulation), the absorption rate of the drug in a fed state was calculated by a deconvolution method to predict continuous absorption for about 4 hours.

[2] = Pharmacokinetics (PK) test of immediate release formulation (capsule formulation) in human; assay type: in vivo; conditions: healthy subjects, immediate release capsules, 0.1 to 340 mg
Protocol: The immediate release formulations (capsule formulations) containing 0.1 mg, 1 mg, 5 mg, 20 mg, and 80 mg of the compound A were used in combinations as needed so that the dose of compound A became 0.1 mg, 1 mg, 3 mg, 10 mg, 30 mg, 100 mg, 160 mg, 240 mg, and 340 mg.

With `Nc1nc(CC(=O)Nc2ccc(CCNC[C@H](O)c3ccccc3)cc2)cs1` [Compound A, (R)-2-(2-aminothiazol-4-yl)-4′-[2-[(2-hydroxy-2-phenylethyl)amino]ethyl]acetic acid anilide] the half-life [1] was 18 to 24 h and the “relation between Cmax and the increase in heart rate from the base line” value [2] was “positive correlation”.
